Measured values taken from ChEMBL document CHEMBL4316614, “Design, synthesis and biological evaluation of 1,4-dihydroxyanthraquinone derivatives as anticancer agents” (Bioorg Med Chem Lett, 2019).
Active and inactive are the calls of the source. No cut-off for these calls is given here.

What was measured:
DNA topoisomerase II [1] = molecular target: T1, DNA topoisomerase II (Homo sapiens, UniProt P11388+Q02880); test: Inhibition of topoisomerase 2 in human MCF7 cells assessed as reduction in cell growth measured after 72 hrs by MTT assay; assay type: cell-based
DNA topoisomerase II [2] = molecular target: T1, DNA topoisomerase II; test: Inhibition of topoisomerase 2 in human HepG2 cells assessed as reduction in cell growth measured after 72 hrs by MTT assay; assay type: cell-based
DNA topoisomerase II [3] = molecular target: T1, DNA topoisomerase II; test: Inhibition of topoisomerase 2 in human MDA-MB-231 cells assessed as reduction in cell growth measured after 72 hrs by MTT assay; assay type: cell-based
L02 = test: Cytotoxicity against human L02 cells assessed as inhibition of cell growth measured after 72 hrs by MTT assay; assay type: cell-based; conditions: L02, 72 h
DNA topoisomerase II [4] = molecular target: T1, DNA topoisomerase II; test: Inhibition of topoisomerase 2 in human HeLa cells assessed as reduction in cell growth measured after 72 hrs by MTT assay; assay type: cell-based
DNA topoisomerase II [5] = molecular target: T1, DNA topoisomerase II; test: Inhibition of topoisomerase 2 in human A549 cells assessed as reduction in cell growth measured after 72 hrs by MTT assay; assay type: cell-based
DNA topoisomerase II [6] = molecular target: T1, DNA topoisomerase II; test: Inhibition of topoisomerase 2 in human CNE1 cells assessed as reduction in cell growth measured after 72 hrs by MTT assay; assay type: cell-based
HepG2 [7] = test: Induction of morphological changes in human HepG2 cells assessed as appearance of foamy nucleus at 2 to 16 uM by confocal microscopic analysis; assay type: functional, cell-based
HepG2 [8] = test: Induction of apoptosis in human HepG2 cells assessed as cell shrinkage at 4 to 16 uM measured after 48 hrs by Hoechst 33342 staining based fluorescence microscopic analysis; assay type: functional
HepG2 [9] = test: Induction of morphological changes in human HepG2 cells assessed as nuclear shrinkage at 2 to 16 uM by confocal microscopic analysis; assay type: functional, cell-based
HepG2 [10] = test: Induction of apoptosis in human HepG2 cells assessed as formation of granular apoptotic body formation at 4 to 16 uM measured after 48 hrs by Hoechst 33342 staining based fluorescence microscopic analysis; assay type: functional, cell-based
HepG2 [11] = test: Induction of apoptosis in human HepG2 cells assessed as apoptotic cells at 8 uM measured after 48 hrs by Annexin V-APC staining based flow cytometry (reference value: 5.37%); assay type: functional
HepG2 [12] = test: Induction of morphological changes in human HepG2 cells assessed as nuclear deformation at 2 to 16 uM by confocal microscopic analysis; assay type: functional, cell-based
[13] = Drug uptake in nucleus of human HepG2 cells at 2 to 16 uM by confocal microscopic analysis; assay type: ADME, subcellular; conditions: hepg2, 16 µM
HepG2 [14] = test: Induction of apoptosis in human HepG2 cells assessed as apoptotic cells at 4 uM measured after 48 hrs by Annexin V-APC staining based flow cytometry (reference value: 5.37%); assay type: functional
HepG2 [15] = test: Induction of apoptosis in human HepG2 cells measured after 48 hrs by Annexin V-APC staining based flow cytometry; assay type: functional, cell-based
HepG2 [16] = test: Induction of apoptosis in human HepG2 cells assessed as apoptotic cells at 16 uM measured after 48 hrs by Annexin V-APC staining based flow cytometry (reference value: 5.37%); assay type: functional
[17] = Drug uptake in cytoplasm of human HepG2 cells at 2 to 16 uM by confocal microscopic analysis; assay type: ADME, subcellular; conditions: hepg2, 16 µM
HepG2 [18] = test: Induction of apoptosis in human HepG2 cells assessed as apoptotic cells at 32 uM measured after 48 hrs by Annexin V-APC staining based flow cytometry (reference value: 5.37%); assay type: functional

IC50 (DNA topoisomerase II [1]) | IC50 (DNA topoisomerase II [2]) | IC50 (DNA topoisomerase II [3]) | IC50 (DNA topoisomerase II [4]) | IC50 (DNA topoisomerase II [5]) | IC50 (DNA topoisomerase II [6]) | Drug uptake [13] | Drug uptake [17] | Compound | IC50 (L02) | Activity (HepG2 [7]) | Activity (HepG2 [8]) | Activity (HepG2 [9]) | Activity (HepG2 [10]) | Activity (HepG2 [11]) | Activity (HepG2 [12]) | Activity (HepG2 [14]) | Activity (HepG2 [15]) | Activity (HepG2 [16]) | Activity (HepG2 [18])
> 200 µM | > 200 µM | > 200 µM | > 200 µM | > 200 µM | > 200 µM | – | – | O=C1c2ccccc2C(=O)c2c(O)ccc(O)c21 [QUINIZARIN] | > 200 µM | – | – | – | – | – | – | – | – | – | –
> 50 µM | > 50 µM | > 50 µM | > 50 µM | > 50 µM | > 50 µM | – | – | COc1ccc(C(O)c2cc(O)c3c(c2O)C(=O)c2ccccc2C3=O)cc1OC (centres undefined) | > 50 µM | – | – | – | – | – | – | – | – | – | –
> 50 µM | 44.7 µM | > 50 µM | 42.3 µM | 35.8 µM | 23.6 µM | – | – | Cc1ccc(C(O)c2cc(O)c3c(c2O)C(=O)c2ccccc2C3=O)s1 (centres undefined) | > 50 µM | – | – | – | – | – | – | – | – | – | –
28.6 µM | 12.8 µM | 26.9 µM | 14.9 µM | 17.6 µM | 12.6 µM | – | – | N#Cc1ccc(C(O)c2cc(O)c3c(c2O)C(=O)c2ccccc2C3=O)cc1 (centres undefined) | > 50 µM | – | – | – | – | – | – | – | – | – | –
45.6 µM | 12.8 µM | 43.7 µM | 29.8 µM | 24.1 µM | 16.7 µM | – | – | COc1ccc(C(O)c2cc(O)c3c(c2O)C(=O)c2ccccc2C3=O)cc1Br (centres undefined) | > 50 µM | – | – | – | – | – | – | – | – | – | –
1.5 µM | 2.6 µM | 3.8 µM | 3.3 µM | 2.3 µM | 1.2 µM | – | – | COc1cccc2c1C(=O)c1c(O)c3c(c(O)c1C2=O)C[C@@](O)(C(=O)CO)C[C@@H]3O[C@H]1C[C@H](N)[C@H](O)[C@H](C)O1 [DOXORUBICIN] | 3.5 µM | – | – | – | – | – | – | – | – | – | –
> 50 µM | > 50 µM | > 50 µM | > 50 µM | > 50 µM | > 50 µM | – | – | O=C1c2ccccc2C(=O)c2c(O)c(C(O)c3ccsc3)cc(O)c21 (centres undefined) | > 50 µM | – | – | – | – | – | – | – | – | – | –
> 50 µM | > 50 µM | > 50 µM | > 50 µM | > 50 µM | > 50 µM | – | – | CCOc1ccc(C(O)c2cc(O)c3c(c2O)C(=O)c2ccccc2C3=O)cc1 (centres undefined) | > 50 µM | – | – | – | – | – | – | – | – | – | –
30.5 µM | 26.5 µM | 39.5 µM | 32 µM | 22.3 µM | 13.7 µM | – | – | O=C1c2ccccc2C(=O)c2c(O)c(C(O)c3ccc(OC(F)(F)F)cc3)cc(O)c21 (centres undefined) | > 50 µM | – | – | – | – | – | – | – | – | – | –
29.3 µM | 24.4 µM | 47.2 µM | 21.2 µM | 33 µM | 17.75 µM | – | – | O=C1c2ccccc2C(=O)c2c(O)c(C(O)c3ccc(Cl)s3)cc(O)c21 (centres undefined) | > 50 µM | – | – | – | – | – | – | – | – | – | –
> 50 µM | 37.9 µM | 45 µM | 36.2 µM | 28.9 µM | 16.6 µM | – | – | O=C1c2ccccc2C(=O)c2c(O)c(C(O)c3cccs3)cc(O)c21 (centres undefined) | > 50 µM | – | – | – | – | – | – | – | – | – | –
27.4 µM | 14.9 µM | 38.1 µM | 20.7 µM | 23.3 µM | 13.7 µM | – | – | O=C1c2ccccc2C(=O)c2c(O)c(C(O)c3ccc(C(F)(F)F)cc3)cc(O)c21 (centres undefined) | > 50 µM | – | – | – | – | – | – | – | – | – | –
39.4 µM | 25.1 µM | 43.9 µM | 48.1 µM | 23 µM | 14.4 µM | – | – | O=C1c2ccccc2C(=O)c2c(O)c(C(O)c3ccc(Br)s3)cc(O)c21 (centres undefined) | > 50 µM | – | – | – | – | – | – | – | – | – | –
5.7 µM | 6.2 µM | 7.8 µM | 6.7 µM | 16 µM | 12.5 µM | – | – | CC(C)=CC[C@@H](O)C1=CC(=O)c2c(O)ccc(O)c2C1=O [SHIKONIN] | 13 µM | – | – | – | – | – | – | – | – | – | –
28.4 µM | 12.5 µM | 34.6 µM | 18.9 µM | 17.8 µM | 12.7 µM | Active | Active | O=C1c2ccccc2C(=O)c2c(O)c(C(O)c3ccc(Cl)cc3Cl)cc(O)c21 (centres undefined) | > 50 µM | Active | Active | Active | Active | 11.56% | Active | 7.38% | Dose-dependent effect | 32.87% | 40.13%
17.5 µM | 23.9 µM | 33.3 µM | 18.4 µM | 41.5 µM | 19.7 µM | – | – | O=C1c2ccccc2C(=O)c2c(O)c(C(O)c3cc(Br)cs3)cc(O)c21 (centres undefined) | > 50 µM | – | – | – | – | – | – | – | – | – | –
> 50 µM | > 50 µM | > 50 µM | > 50 µM | > 50 µM | > 50 µM | – | – | CSc1ccc(C(O)c2cc(O)c3c(c2O)C(=O)c2ccccc2C3=O)cc1 (centres undefined) | > 50 µM | – | – | – | – | – | – | – | – | – | –

Compound | IC50 (DNA topoisomerase II [1]) | IC50 (DNA topoisomerase II [2]) | IC50 (DNA topoisomerase II [3]) | IC50 (DNA topoisomerase II [4]) | IC50 (DNA topoisomerase II [5]) | IC50 (DNA topoisomerase II [6]) | Drug uptake [13] | Drug uptake [17] | IC50 (L02) | Activity (HepG2 [7]) | Activity (HepG2 [8]) | Activity (HepG2 [9]) | Activity (HepG2 [10]) | Activity (HepG2 [11]) | Activity (HepG2 [12]) | Activity (HepG2 [14]) | Activity (HepG2 [15]) | Activity (HepG2 [16]) | Activity (HepG2 [18])
O=C1c2ccccc2C(=O)c2c(O)c(C(c3ccc(C(F)(F)F)cc3)N(CCCl)CCCl)cc(O)c21 (centres undefined) | > 50 µM | > 50 µM | > 50 µM | > 50 µM | > 50 µM | 16.1 µM | – | – | > 50 µM | – | – | – | – | – | – | – | – | – | –
O=C1c2ccccc2C(=O)c2c(O)c(C(c3ccc(OC(F)(F)F)cc3)N(CCCl)CCCl)cc(O)c21 (centres undefined) | 42.8 µM | > 50 µM | 34.8 µM | > 50 µM | > 50 µM | 11.3 µM | – | – | > 50 µM | – | – | – | – | – | – | – | – | – | –
O=C1c2ccccc2C(=O)c2c(O)c(C(c3ccsc3)N(CCCl)CCCl)cc(O)c21 (centres undefined) | 22.5 µM | 13.7 µM | 22.4 µM | 19.3 µM | 21.9 µM | 23.1 µM | – | – | 35.4 µM | – | – | – | – | – | – | – | – | – | –
CSc1ccc(C(c2cc(O)c3c(c2O)C(=O)c2ccccc2C3=O)N(CCCl)CCCl)cc1 (centres undefined) | 39.3 µM | 20.6 µM | 41.4 µM | > 50 µM | > 50 µM | 15.4 µM | – | – | > 50 µM | – | – | – | – | – | – | – | – | – | –
